Consider 4 compounds from patent US20240270821A1, “GIP/GLP1/GCG TRI-RECEPTOR AGONISTS AND USES THEREOF” (priority 2023, published 2024).

Holding throughout (assay type): cell-based
Assay [1] deals with T1, hGIPR (Homo sapiens, UniProt P48546).
T1 sequence (P48546 22-466): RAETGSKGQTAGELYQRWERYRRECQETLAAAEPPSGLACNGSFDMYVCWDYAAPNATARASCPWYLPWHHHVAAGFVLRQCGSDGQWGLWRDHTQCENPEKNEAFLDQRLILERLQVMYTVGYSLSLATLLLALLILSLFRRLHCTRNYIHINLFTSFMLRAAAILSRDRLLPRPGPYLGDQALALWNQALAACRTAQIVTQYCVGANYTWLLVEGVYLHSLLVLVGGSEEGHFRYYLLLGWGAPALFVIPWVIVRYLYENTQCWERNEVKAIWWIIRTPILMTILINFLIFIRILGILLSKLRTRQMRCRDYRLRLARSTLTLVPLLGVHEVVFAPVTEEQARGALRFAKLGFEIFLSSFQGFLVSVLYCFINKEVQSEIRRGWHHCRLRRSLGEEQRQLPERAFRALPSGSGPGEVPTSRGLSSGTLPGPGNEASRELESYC
Description: Functional cAMP activity in the presence of 1% HSA. The note with it: read-out: cAMP Rel EC50, hGIPR.

Assay [2] has as its target T2, hGLP-1R (Homo sapiens, UniProt P43220). Description: Functional cAMP activity in the presence of 1% HSA. The note with it: read-out: cAMP Rel EC50, hGLP-1R.
In assay [3] the target is human GcgR (Homo sapiens, UniProt P47871). Briefly: Functional cAMP activity in the presence of 1% HSA. The note with it: read-out: cAMP Rel EC50, hGcgR.
The target of assay [4] is T1, hGIPR. Description: Functional cAMP activation in the presence of 0.1% casein (no HSA). Conditions: read-out: Relative cAMP EC50, hGIPR.
Assay [5] deals with T2, hGLP-1R. The assay is described as above. The note with it: read-out: Relative cAMP EC50, hGLP-1R.
Assay [6] concerns the target hGcgR (Homo sapiens, UniProt P47871). Described as above. The note with it: read-out: Relative cAMP EC50, hGcgR.
Where [7] appears, read: in the presence of 0.1% casein (no HSA), geometric mean.

Read-outs that look alike come from different tables or passages of the source. Starred links: 1 amine or outer side, 2 acyl side, 3 side chain; linkers in the order of their positions; H or OH if unused. Non-standard residues stand in square brackets, D forms with d. Groups on a side chain read outwards from the residue. *: point of attachment. C18 diacid = O=C(O)CCCCCCCCCCCCCCCCC(=O)*; αMePhe(2-F) = C[C@](N)(Cc1ccccc1F)C(=O)O; γGlu = O=C(O)[C@H](CCC(=O)[*:2])N[*:1]; αMe4Pal = C[C@](N)(Cc1ccncc1)C(=O)O; αMeY = C[C@](N)(Cc1ccc(O)cc1)C(=O)O; 4Pal = N[C@@H](Cc1ccncc1)C(=O)O; αMeL = CC(C)C[C@](C)(N)C(=O)O; αMeS = C[C@](N)(CO)C(=O)O; Orn = NCCC[C@H](N)C(=O)O; Aib = CC(C)(N)C(=O)O
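Wherever Relative cAMP EC50, hGIPR is given: intracellular cAMP rise after 30 min at 37 °C read by HTRF against a standard curve, scaled between buffer alone (0%) and top control ligand concentration (100%), four-parameter fit.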
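Wherever Relative cAMP EC50, hGLP-1R is given: intracellular cAMP rise after 30 min at 37 °C read by HTRF, normalized between buffer only (0%) and maximal control ligand (100%), four-parameter variable-slope fit.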
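Wherever Relative cAMP EC50, hGcgR is given: intracellular cAMP rise after 30 min at 37 °C, read by HTRF against a cAMP standard curve, scaled from buffer only (0%) to maximal control ligand response (100%).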

Chain of hGcgR (P47871 26-477): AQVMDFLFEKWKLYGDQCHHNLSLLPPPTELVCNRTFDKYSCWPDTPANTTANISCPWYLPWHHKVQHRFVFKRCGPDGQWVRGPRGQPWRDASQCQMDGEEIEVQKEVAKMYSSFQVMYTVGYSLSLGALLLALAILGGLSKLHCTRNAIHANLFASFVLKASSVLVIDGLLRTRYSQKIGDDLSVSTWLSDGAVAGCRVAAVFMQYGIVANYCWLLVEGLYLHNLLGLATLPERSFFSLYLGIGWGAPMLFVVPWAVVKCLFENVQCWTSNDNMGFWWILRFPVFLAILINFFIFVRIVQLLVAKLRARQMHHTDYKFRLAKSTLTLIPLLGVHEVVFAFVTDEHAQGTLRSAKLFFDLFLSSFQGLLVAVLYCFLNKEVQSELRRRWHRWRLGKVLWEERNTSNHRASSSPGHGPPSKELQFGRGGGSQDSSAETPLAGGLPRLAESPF
Chain of human GcgR (P47871 26-477): as above
T2 sequence (P43220 24-463): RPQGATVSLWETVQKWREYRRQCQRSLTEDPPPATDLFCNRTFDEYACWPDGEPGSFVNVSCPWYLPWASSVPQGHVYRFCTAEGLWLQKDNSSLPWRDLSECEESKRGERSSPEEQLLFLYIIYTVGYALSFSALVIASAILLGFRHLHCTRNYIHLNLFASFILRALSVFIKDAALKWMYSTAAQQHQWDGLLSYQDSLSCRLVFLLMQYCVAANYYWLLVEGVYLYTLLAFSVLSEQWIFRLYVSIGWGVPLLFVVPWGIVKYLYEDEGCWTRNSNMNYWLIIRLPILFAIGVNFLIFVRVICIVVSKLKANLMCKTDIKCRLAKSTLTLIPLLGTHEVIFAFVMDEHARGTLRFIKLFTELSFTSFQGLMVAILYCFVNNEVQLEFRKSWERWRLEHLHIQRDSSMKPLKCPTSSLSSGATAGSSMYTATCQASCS

On to `CC[C@H](C)[C@H](NC(=O)[C@H](CC(C)C)NC(=O)[C@](C)(Cc1ccc(O)cc1)NC(=O)[C@@H](CCC(=O)O)NC(=O)[C@@H](NC(=O)[C@H](Cc1ccccc1)NC(=O)[C@H](CCC(=O)O)NC(=O)C(C)(C)NC(=O)[C@H](C)NC(=O)[C@H](C)NC(=O)[C@H](CCCCNC(=O)COCCOCCNC(=O)CC[C@H](NC(=O)CCCCCCCCCCCCCCCCC(=O)O)C(=O)O)NC(=O)[C@H](CCCN)NC(=O)[C@H](CC(=O)O)NC(=O)[C@H](CC(C)C)NC(=O)[C@](C)(CC(C)C)NC(=O)[C@@H](NC(=O)[C@](C)(CO)NC(=O)[C@H](Cc1ccncc1)NC(=O)[C@H](CC(=O)O)NC(=O)[C@H](CO)NC(=O)[C@@H](NC(=O)[C@](C)(Cc1ccccc1F)NC(=O)[C@@H](NC(=O)CNC(=O)[C@H](CCC(N)=O)NC(=O)C(C)(C)NC(=O)[C@@H](N)Cc1ccc(O)cc1)[C@@H](C)O)[C@@H](C)O)[C@@H](C)CC)[C@@H](C)CC)C(=O)N[C@@H](CCC(=O)O)C(=O)NCC(=O)NCC(=O)N1CCC[C@H]1C(=O)N[C@@H](CO)C(=O)N[C@@H](CO)C(=O)NCC(=O)N[C@@H](C)C(=O)N1CCC[C@H]1C(=O)N1CCC[C@H]1C(=O)N1CCC[C@H]1C(=O)N[C@@H](CO)C(=O)NCC(=O)N[C@@H](CO)C(=O)N[C@@H](CCC(=O)O)C(N)=O` [Example 702], for which the EC50 in assay [1] was 1.25 nM; in assay [2], 28.4 nM; in assay [3], 196 nM; in assay [4], 0.0116 nM; in assay [5], 0.243 nM; in assay [6], 1.5 nM.
As for “H-Y[Aib]QGTFTSD[4Pal]S[Orn][αMeL]LD[Orn]K([γGlu-γGlu-C18 diacid])AQ[αMe4Pal]AFIEYLIAGGPSSGEPPPSGTE-NH2 [Example 984]”, the EC50 in assay [1] turned out to be 23.5 nM; in assay [2], 160 nM; in assay [3] it was 409 nM; in assay [4] (setting [7]) it was 0.232 nM; in assay [5] (setting [7]), 2.07 nM; in assay [6] (setting [7]) it was 4.5 nM.
Regarding `CC[C@H](C)[C@H](NC(=O)[C@H](Cc1ccccc1)NC(=O)[C@H](C)NC(=O)[C@](C)(Cc1ccncc1)NC(=O)[C@H](CCC(N)=O)NC(=O)[C@H](C)NC(=O)[C@H](CCCCNC(=O)COCCOCCNC(=O)CC[C@H](NC(=O)CC[C@H](NC(=O)CCCCCCCCCCCCCCCCC(=O)O)C(=O)O)C(=O)O)NC(=O)[C@H](CCCN)NC(=O)[C@H](CC(=O)O)NC(=O)[C@H](CC(C)C)NC(=O)[C@](C)(CC(C)C)NC(=O)[C@H](CCC(N)=O)NC(=O)[C@H](CO)NC(=O)[C@H](Cc1ccncc1)NC(=O)[C@H](CC(=O)O)NC(=O)[C@H](CO)NC(=O)[C@@H](NC(=O)[C@H](Cc1ccccc1)NC(=O)[C@@H](NC(=O)CNC(=O)[C@H](CCC(N)=O)NC(=O)C(C)(C)NC(=O)[C@@H](N)Cc1ccc(O)cc1)[C@@H](C)O)[C@@H](C)O)C(=O)N[C@@H](CCC(=O)O)C(=O)N[C@@H](Cc1ccc(O)cc1)C(=O)N[C@@H](CC(C)C)C(=O)N[C@H](C(=O)N[C@@H](CCC(=O)O)C(=O)N[C@H](C)C(=O)NCC(=O)N1CCC[C@H]1C(=O)N[C@@H](CO)C(=O)N[C@@H](CO)C(=O)NCC(=O)N[C@@H](C)C(=O)N1CCC[C@H]1C(=O)N1CCC[C@H]1C(=O)N1CCC[C@H]1C(=O)N[C@@H](CCC(=O)O)C(=O)NCC(=O)N[C@@H](CO)C(N)=O)[C@@H](C)CC` [Example 1020], the EC50 was determined as 27.3 nM in assay [1]; 146 nM in assay [2]; 478 nM in assay [3]; 0.309 nM in assay [4] (setting [7]); 2.29 nM in assay [5] (setting [7]); 5.87 nM in assay [6] (setting [7]).
As for “H-Y[Aib]QGT[αMePhe(2-F)]TSD[4Pal][αMeS]I[αMeL]LD[Orn]K([γGlu-γGlu-C18 diacid])AQ[Aib][Orn]FI[dE][αMeY]LSEGGPSSGEPPPSGTGE-NH2 [Example 518]”, the EC50 was 7.1 nM in assay [1]; 51 nM in assay [2]; 265 nM in assay [3]; 0.129 nM in assay [4]; 0.867 nM in assay [5]; 3.93 nM in assay [6].
